Measured values from publication PMC7767506, “Synthesis and Characterization of Store-Operated Calcium Entry Inhibitors Active in the Submicromolar Range” (International Journal of Molecular Sciences, 2020).
“And” between values parts separate entries of the source, which are not always exact repeats. Equal values may be shown once. “Also recorded” adds a separate entry of the source. Read-outs that look alike come from different tables or passages of the source.

Columns and labels:
Jurkat cell SOCE = assay: Thapsigargin-induced SOCE in Jurkat cells, Indo-1 [Ca2+]cyt measurement; assay type: cell-based, human; details: Jurkat cells; for Ki: 1 µM thapsigargin 10 min, compound added 30 s prior to 1 mM CaCl2
Description: To visualize SOCE, we performed a classical protocol: Jurkat cells in Ca^2+-free HBS medium are stimulated by 1 µM thapsigargin (TG, black arrow, Figure 2A) during 600 s to allow the release of Ca^2+ ions by the ER, and the subsequent opening of the store-operated Ca^2+ channels (SOCC). Addition of 1 mM CaCl2 allowed for a massive entry of Ca^2+ ions through SOCC leading thus to an increase of the cytosolic calcium concentration ([Ca^2+]cyt). To test 2-APB and its analogues, different concentrations of compounds were added 30 s prior to Ca^2+ addition.
[Ca^2+]cyt was recorded by a fluorimetric ratio technique as previously described. Leukocytes were spun and resuspended at a density of 10^6 cells/mL in Hepes buffered saline (HBS; 135 mM NaCl, 5.9 mM KCl, 1.2 mM MgCl2, 11.6 mM Hepes, 11.5 mM glucose adjusted to pH 7.3 with NaOH). Due to the presence of 0.002% Ca^2+ in the NaCl, this HBS medium contained 0.1 mM of Ca^2+. Then, cells were incubated in the dark with 4 μM Indo-1-AM for one hour at room temperature under slow agitation. Cells were then centrifuged and resuspended in HBS medium before measurement. To perform the experiments, 0.5 to 1 × 10^6 cells were suspended in 2 mL HBS in a quartz cuvette and inserted into a spectrofluorophotometer (RF-1501 Shimadzu Corporation, Kyoto, Japan) connected to a PC computer (Dell Computer Corp., Montpellier, France). A temperature of 37°C was maintained by circulating water from a bath. Ultraviolet light of 360 nm was used for excitation of Indo-1, and emissions at 405 and 480 nm were recorded. Background and autofluorescence of the cell suspension were subtracted from the recordings. The maximum Indo-1 fluorescence (Rmax) was obtained by adding 1 µM ionomycin to the cell suspension in the presence of 10 mM extracellular CaCl2. Minimum fluorescence was determined following the depletion of external Ca^2+ with 5 mM EGTA.
To visualize the SOCE, cells were placed into the quartz cuvette and 0.5 EGTA was added just before the beginning of the recordings. To induce the SOCE, the cells were treated with 1 μM thapsigargin (TG) during 10 min in Ca^2+-free HBS to induce Ca^2+ release from the ER and the opening of SOCE channels. Then, 1 mM CaCl2 was added to measure the change in [Ca^2+]cyt subsequently to Ca^2+ influx. In the dose-response experiments, different concentrations of 2-APB and its analogs were added 30 s prior to Ca^2+ readdition.

SERCA = SERCA (Mus musculus, UniProt O55143); assay: SERCA-mediated 45Ca2+ store loading in permeabilized L15 fibroblasts; assay type: cell-based
Description: (§1) Measurements of SERCA-mediated ^45Ca^2+ store loading and IP3-dependent release from the ER Ca^2+ store were performed on permeabilized cells in unidirectional conditions. As this approach required the use of cells forming strongly adherent monolayers, we used L15 fibroblasts stably overexpressing IP3R1, similarly to our previous work.
(§2) The L15 fibroblasts stably overexpressing IP3R1 were seeded in gelatin-coated 12-well plates (Greiner, Frickenhausen, Germany) at a density of 60,000 cells per well. Unidirectional ^45Ca^2+ flux experiments on confluent cell monolayers were performed at 30 °C after membrane permeabilization with saponin (40 µg/mL), exactly as previously described. After permeabilization, the non-mitochondrial Ca^2+ stores were loaded for 45 min in 120 mM KCl, 30 mM imidazole–HCl (pH 6.8), 5 mM MgCl2, 5 mM ATP, 0.44 mM EGTA, 10 mM NaN3, and 150 nM free ^45Ca^2+ (28 µCi mL^−1). Subsequently, efflux was initiated by incubation in efflux medium (120 mM KCl, 1 mM EGTA, 10 µM TG and 30 mM imidazole–HCl pH 6.8). The latter medium was replaced every two minutes for 18 minutes. The exact amount of Ca^2+ at each time point is calculated by summing in retrograde order the amount of radioactivity remaining in the cells at the end of the efflux and the radioactivity collected during the successive time intervals. This allows to calculate the steady-state content of the ER Ca^2+ stores (indicative for the SERCA activity, after subtraction of the loading achieved in the presence of 2 µM TG) the basal leak rate of Ca^2+ out of the stores and the IP3-induced Ca^2+ release after addition of IP3 (0.7 µM). These various parameters were measured both in control conditions or in the presence of various 2-APB analogs as indicated. To assess the effect of the 2-APB analogs on the SERCA-mediated loading of the ER Ca^2+ stores, the analogs were added during the ^45Ca^2+-loading phase as described previously. Obviously, compounds that strongly stimulated the basal Ca^2+ leak out of the stores (as P8) could not be investigated for their effect on SERCA activity (as Ca^2+ loading was already compromised by the increased leak) or on IP3-induced Ca^2+ release (as the decreased luminal Ca^2+ level impacted both the driving force for Ca^2+ release and the sensitivity of the IP3R).

IP3R1 = target: T1, IP3R1 (Mus musculus, UniProt P11881); assay: IP3-induced Ca2+ release (IICR) in permeabilized L15 fibroblasts overexpressing IP3R1; assay type: cell-based
T1 construct: expressed in transfected cells; host or cells: L15 fibroblast cell line (gift of Katsuhiko Mikoshiba), saponin-permeabilized
Description: as §1
as §2, with “Obviously, compounds that strongly stimulated the basal Ca^2+ leak out of the stores (as P8) could not be investigated for their effect on SERCA activity (as Ca^2+ loading was already compromised by the increased leak) or on IP3-induced Ca^2+ release (as the decreased luminal Ca^2+ level impacted both the driving force for Ca^2+ release and the sensitivity of the IP3R).” left out

[1] = tested on: caspase-3 activity in Jurkat cells; assay: Fluorometric caspase-3 activity assay (Ac-DEVD-AFC) in Jurkat cells; assay type: cell-based, human
Description: To verify the mechanism of cell death induced by compound P11, we next performed caspase-3 activity assays using the fluorogenic Ac-DEVD-AFC substrate as well as a TUNEL assay.
Caspase-3 activity was measured using the fluorogenic substrate Ac-DEVD-AFC (Tebu-bio, Le Perray-en-Yvelines, France) according to the manufacturer’s instructions. Briefly, 48-well plates were seeded with 10^6 Jurkat T cells per well. Cells were then incubated for 24 h with 0, 1, or 10 µg/mL PHA and 0 to 1 µM P11 in complete culture medium. After 24 h, cells were collected and lysed in RIPA lysis buffer supplemented with protease inhibitor cocktails (Life Science Biorad, Marnes la Coquette, France). The protein samples were quantified using the DC protein assay reagent (Biorad, Les Ulis, France). Cell lysates (50 µg) were diluted with reaction buffer (200 mM Hepes pH 7.4, 1 mM EDTA, 20% sucrose and 20 mM dithiothreitol) and incubated with the fluorogenic substrate (20 µM final concentration) for 45 min up to 7 h at 37 °C. The release of 7-amino-4-trifluoromethylcoumarin (AFC) was measured by fluorescence (excitation at 405 nm, emission at 505 nm) using a Victor3 plate reader (Perkin Elmer, Courtaboeuf, France).

Chain of SERCA (O55143 whole entry): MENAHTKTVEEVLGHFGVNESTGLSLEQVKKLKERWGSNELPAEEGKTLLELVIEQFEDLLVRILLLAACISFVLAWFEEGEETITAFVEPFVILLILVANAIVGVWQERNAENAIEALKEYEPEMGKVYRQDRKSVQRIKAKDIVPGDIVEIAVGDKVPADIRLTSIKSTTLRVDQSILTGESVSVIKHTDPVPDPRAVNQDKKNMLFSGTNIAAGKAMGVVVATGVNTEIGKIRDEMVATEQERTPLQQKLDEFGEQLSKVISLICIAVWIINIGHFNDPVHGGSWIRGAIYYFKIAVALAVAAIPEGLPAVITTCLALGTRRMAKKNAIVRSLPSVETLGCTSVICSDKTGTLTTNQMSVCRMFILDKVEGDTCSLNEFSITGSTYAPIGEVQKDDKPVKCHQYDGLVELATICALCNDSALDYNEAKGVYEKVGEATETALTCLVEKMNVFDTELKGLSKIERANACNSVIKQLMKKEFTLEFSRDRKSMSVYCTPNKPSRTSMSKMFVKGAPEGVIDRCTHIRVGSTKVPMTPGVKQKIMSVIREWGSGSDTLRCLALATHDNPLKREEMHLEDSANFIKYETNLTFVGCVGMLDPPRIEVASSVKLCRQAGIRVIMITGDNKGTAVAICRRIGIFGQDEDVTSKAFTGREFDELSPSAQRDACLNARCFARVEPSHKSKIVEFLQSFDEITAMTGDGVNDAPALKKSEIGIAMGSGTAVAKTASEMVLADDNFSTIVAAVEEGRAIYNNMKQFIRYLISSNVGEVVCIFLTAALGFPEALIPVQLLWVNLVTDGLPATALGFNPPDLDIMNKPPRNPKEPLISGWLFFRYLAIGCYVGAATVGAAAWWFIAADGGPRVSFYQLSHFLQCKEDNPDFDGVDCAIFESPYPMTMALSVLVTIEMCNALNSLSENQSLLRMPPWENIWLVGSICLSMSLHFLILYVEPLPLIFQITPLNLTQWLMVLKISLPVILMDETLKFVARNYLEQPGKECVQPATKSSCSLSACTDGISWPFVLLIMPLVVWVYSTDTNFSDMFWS
T1 sequence (P11881 whole entry): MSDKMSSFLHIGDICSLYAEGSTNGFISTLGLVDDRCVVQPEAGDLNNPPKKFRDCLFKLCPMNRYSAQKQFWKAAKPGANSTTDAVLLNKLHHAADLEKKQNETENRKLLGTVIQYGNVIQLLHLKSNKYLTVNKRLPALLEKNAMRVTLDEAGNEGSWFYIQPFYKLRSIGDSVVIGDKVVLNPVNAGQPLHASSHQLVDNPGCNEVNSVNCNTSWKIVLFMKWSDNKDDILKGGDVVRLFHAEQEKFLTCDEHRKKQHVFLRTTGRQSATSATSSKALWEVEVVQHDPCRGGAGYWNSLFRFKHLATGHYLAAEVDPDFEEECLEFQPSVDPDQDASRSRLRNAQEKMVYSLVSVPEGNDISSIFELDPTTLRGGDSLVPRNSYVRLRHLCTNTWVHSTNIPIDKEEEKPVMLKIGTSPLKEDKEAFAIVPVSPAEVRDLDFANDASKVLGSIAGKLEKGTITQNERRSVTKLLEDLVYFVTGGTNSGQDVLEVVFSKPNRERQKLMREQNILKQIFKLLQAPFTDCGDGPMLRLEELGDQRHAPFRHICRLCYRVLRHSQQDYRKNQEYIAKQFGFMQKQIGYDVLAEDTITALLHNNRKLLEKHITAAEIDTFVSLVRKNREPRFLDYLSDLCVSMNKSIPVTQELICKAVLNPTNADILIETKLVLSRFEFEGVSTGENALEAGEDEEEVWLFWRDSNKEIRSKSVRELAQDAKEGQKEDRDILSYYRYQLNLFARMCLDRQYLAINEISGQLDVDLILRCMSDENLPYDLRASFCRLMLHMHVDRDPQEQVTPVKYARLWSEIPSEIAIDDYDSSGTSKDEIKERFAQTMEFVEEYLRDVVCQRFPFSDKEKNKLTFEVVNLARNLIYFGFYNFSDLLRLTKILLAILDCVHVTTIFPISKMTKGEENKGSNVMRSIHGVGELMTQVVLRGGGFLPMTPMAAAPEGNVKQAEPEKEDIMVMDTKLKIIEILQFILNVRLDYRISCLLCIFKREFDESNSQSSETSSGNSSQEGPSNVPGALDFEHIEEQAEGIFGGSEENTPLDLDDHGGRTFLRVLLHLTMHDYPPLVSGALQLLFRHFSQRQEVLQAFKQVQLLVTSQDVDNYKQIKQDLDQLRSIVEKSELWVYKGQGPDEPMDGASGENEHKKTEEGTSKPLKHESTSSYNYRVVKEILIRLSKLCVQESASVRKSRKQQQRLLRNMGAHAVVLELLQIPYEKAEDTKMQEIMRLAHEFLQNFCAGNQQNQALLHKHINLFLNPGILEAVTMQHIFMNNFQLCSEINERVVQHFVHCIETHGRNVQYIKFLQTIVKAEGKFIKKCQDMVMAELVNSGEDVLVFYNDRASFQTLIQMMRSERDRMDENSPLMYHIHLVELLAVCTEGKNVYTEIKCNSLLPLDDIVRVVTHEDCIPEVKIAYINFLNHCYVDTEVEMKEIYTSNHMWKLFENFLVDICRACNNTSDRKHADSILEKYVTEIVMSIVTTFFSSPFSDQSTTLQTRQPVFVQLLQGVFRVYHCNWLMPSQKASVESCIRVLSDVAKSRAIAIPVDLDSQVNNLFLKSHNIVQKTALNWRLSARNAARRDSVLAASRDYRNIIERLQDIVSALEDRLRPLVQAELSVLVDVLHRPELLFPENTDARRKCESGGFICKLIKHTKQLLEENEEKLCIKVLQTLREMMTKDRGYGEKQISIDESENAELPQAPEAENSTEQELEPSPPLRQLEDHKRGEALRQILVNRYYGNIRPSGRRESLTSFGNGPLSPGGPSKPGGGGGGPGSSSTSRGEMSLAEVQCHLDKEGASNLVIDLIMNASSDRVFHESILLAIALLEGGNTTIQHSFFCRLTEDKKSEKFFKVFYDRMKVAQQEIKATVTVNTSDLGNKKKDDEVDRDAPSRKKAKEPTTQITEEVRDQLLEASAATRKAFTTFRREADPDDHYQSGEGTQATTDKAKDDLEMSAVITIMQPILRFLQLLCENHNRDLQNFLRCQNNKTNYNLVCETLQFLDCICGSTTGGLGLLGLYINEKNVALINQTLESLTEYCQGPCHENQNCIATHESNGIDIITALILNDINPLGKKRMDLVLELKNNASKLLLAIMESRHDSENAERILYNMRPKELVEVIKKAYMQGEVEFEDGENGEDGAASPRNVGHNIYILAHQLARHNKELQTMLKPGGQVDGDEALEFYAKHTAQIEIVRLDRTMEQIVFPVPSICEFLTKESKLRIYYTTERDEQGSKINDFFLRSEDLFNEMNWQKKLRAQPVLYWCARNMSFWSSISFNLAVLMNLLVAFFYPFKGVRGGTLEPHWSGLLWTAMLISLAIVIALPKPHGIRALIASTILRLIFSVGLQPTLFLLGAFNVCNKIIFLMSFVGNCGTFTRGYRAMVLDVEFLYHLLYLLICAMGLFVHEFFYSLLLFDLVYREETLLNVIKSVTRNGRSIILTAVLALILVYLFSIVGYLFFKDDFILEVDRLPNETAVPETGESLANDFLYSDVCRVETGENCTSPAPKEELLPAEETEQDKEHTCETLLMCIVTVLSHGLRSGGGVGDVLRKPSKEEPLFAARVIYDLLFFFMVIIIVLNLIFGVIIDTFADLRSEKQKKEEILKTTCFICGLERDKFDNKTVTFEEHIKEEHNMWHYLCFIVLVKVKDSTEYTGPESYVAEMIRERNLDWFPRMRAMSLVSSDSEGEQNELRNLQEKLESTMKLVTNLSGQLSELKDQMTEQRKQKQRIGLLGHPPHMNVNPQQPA

2-(dibiphenyl-4-ylboryloxy)ethanamine [P11]
concentration of complete/full SOCE inhibition (Jurkat cell SOCE): below 1 µM | Ki (Jurkat cell SOCE; read-out: Ki (nM), inhibition constant on SOCE): ~75 nM and 75 nM | Ki (Jurkat cell SOCE; read-out: Ki (µM), inhibition constant on SOCE): < 1000 nM | concentration at which SOCE is totally blocked (Jurkat cell SOCE; Figure 2B): > 100 nM | effect on SERCA (SERCA; concentrations < 1 µM): devoid of any inhibitory activity; also recorded: without any effect | change of SERCA activity (SERCA; concentrations > 30 µM): −89 ± 1% | Ki (SERCA; permeabilized L15 fibroblasts): 7400 ± 2000 nM | change of IP3R activity (IP3R1; 100 µM): −29 ± 9% | effect on IP3R (IP3R1; concentrations < 1 µM): devoid of any inhibitory activity; also recorded: without any effect | caspase-3 activity ([1]; 10 µg/mL PHA + 1 µM P11, 24 h): 3332 ± 113 AU | caspase-3 activity, compound alone ([1]; P11 alone, up to 1 µM): did not induce any increase | concentration giving maximal activating effect on caspase-3 activity ([1]; with 10 µg/mL PHA, 24 h): 10 nM
